Several values for one entry are separate records, joined by “and”; a condition that tells them apart may be missing. Equal values may be shown once.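 Dose response: 5 concentrations. Exposure: 48 h. Format: 96-well plates. Endpoint: linear interpolation; highest concentration if not reached. GI50: concentration for 50% inhibition of growth. TGI is the concentration that stops growth completely.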
Columns and labels:
Assay in all cases: NCI anticancer screen, dose series, 48 h
ACHN renal = test system: ACHN renal
CAKI-1 renal = test system: CAKI-1 renal
HCT-15 colon = test system: HCT-15 colon
HL-60(TB) leukemia = test system: HL-60(TB) leukemia
LOX IMVI melanoma = test system: LOX IMVI melanoma
NCI-H522 lung = test system: NCI-H522 lung
OVCAR-4 ovarian = test system: OVCAR-4 ovarian
UO-31 renal = test system: UO-31 renal
IGROV1 ovarian = test system: IGROV1 ovarian
RXF 393 renal = test system: RXF 393 renal

| Compound | TGI (ACHN renal) | TGI (CAKI-1 renal) | TGI (HCT-15 colon) | TGI (HL-60(TB) leukemia) | TGI (LOX IMVI melanoma) | TGI (NCI-H522 lung) | TGI (OVCAR-4 ovarian) | TGI (UO-31 renal) | TGI (IGROV1 ovarian) | TGI (RXF 393 renal) | GI50 (CAKI-1 renal) | GI50 (HL-60(TB) leukemia) | GI50 (IGROV1 ovarian) | GI50 (NCI-H522 lung) | GI50 (RXF 393 renal) | GI50 (UO-31 renal) | GI50 (ACHN renal) | GI50 (HCT-15 colon) |
| --- | --- | --- | --- | --- | --- | --- | --- | --- | --- | --- | --- | --- | --- | --- | --- | --- | --- | --- |
| CC(=O)Nc1ccc(C(=O)N2N=C(C)/C(=C/c3ccc(O)cc3)C2=O)cc1 | > 100 µM | > 100 µM | > 100 µM | > 100 µM | > 100 µM | > 100 µM | > 100 µM | > 100 µM |  |  |  |  |  |  |  |  |  |  |
| CC(=O)NC1=C(NCC(C)C)C(=O)c2ccccc2C1=O | > 100 µM | 30.6 µM | 33.7 µM | 7.32 µM | 30.1 µM |  | > 100 µM | 34.4 µM | > 100 µM | 25.4 µM |  |  |  |  |  |  |  |  |
| COC(=O)c1c(OC)cc2cc3c(c(O)c2c1C)C(=O)C1(O)C(=O)C=C(OC)C(OC(=O)CC(C)N)=C1C3=O (stereo not given) | > 100 µM | > 100 µM | > 100 µM | 50.8 µM | > 100 µM | > 100 µM | 90.1 µM | > 100 µM | 69.1 µM |  |  |  |  |  |  |  |  |  |
| O=C1CSc2nnc(CCCCCCCCc3nnc4n3NC(=O)CS4)n2N1 | > 100 µM | > 100 µM | > 100 µM | > 100 µM |  | 75.2 µM | > 100 µM | > 100 µM | > 100 µM |  |  |  |  |  |  |  |  |  |
| COC(=O)n1c(C[P+](c2ccccc2)(c2ccccc2)c2ccccc2)cc2ccccc21 | 14.9 µM | 7.15 µM | 34.2 µM | 6.12 µM | 11.5 µM | 6.34 µM |  |  | 12 µM | 14.4 µM |  |  |  |  |  |  |  |  |
| C/C(=C\Cc1cc(O)ccc1O)CCc1c(C)cc(O)c(C=O)c1C | 44.3 µM | 63.5 µM | 84.5 µM | > 100 µM |  | 23.6 µM | > 100 µM | 78.1 µM | 50.5 µM | 37.1 µM |  |  |  |  |  |  |  |  |
| CCCCCCOc1ccc(C(=N)N(CCCC)CCCC)c2ccccc12 |  | 2.86 µM |  | 3.43 µM |  | 2.07 µM |  | 2.55 µM | 2.86 µM | 2.74 µM | 1.39 µM | 1.81 µM | 1.34 µM | 0.61 µM | 1.28 µM | 1.14 µM |  |  |
| C=CCOC(=O)CCCCCCCCCCCCCCCOC(=O)C1=C(CCC[C@@H](C)O[Si](C)(C)C(C)(C)C)NC(=O)N2[C@H](CC3(CC/C=C\[C@H](CC)O[Si](C(C)C)(C(C)C)C(C)C)OCCO3)CC[C@H]12 | > 100 µM | > 100 µM | > 100 µM |  |  | > 100 µM | > 100 µM | > 100 µM |  |  |  |  |  |  |  |  |  |  |
| CC12CC(c3ccccc3O1)C(C(=O)Nc1cccc(F)c1)C(=O)N2 (stereo not given) | > 100 µM | > 100 µM | > 100 µM | > 100 µM | > 100 µM | > 100 µM | > 100 µM | 24.9 µM | > 100 µM |  |  |  |  |  |  |  |  |  |
| CCN(CC)CCN(C)CCc1ccc(Br)cc1 | > 100 µM | > 100 µM | > 100 µM |  | > 100 µM | > 100 µM | > 100 µM | > 100 µM | > 100 µM | > 100 µM |  |  |  |  |  |  |  |  |
| CNc1ccc(S(=O)Nc2ccccc2)cc1 (stereo not given) | > 100 µM |  | > 100 µM | > 100 µM | > 100 µM | 96.7 µM | > 100 µM | > 100 µM | > 100 µM |  |  |  |  |  |  |  |  |  |
| CC(C)(C)c1ccc(-c2nnc(-c3cc(C#N)cc(-c4nnc(-c5ccc(C(C)(C)C)cc5)o4)c3)o2)cc1 | > 100 µM | > 100 µM | > 100 µM |  | > 100 µM | > 100 µM | > 100 µM | > 100 µM | > 100 µM | 96.9 µM |  |  |  |  |  |  |  |  |
| COC(=O)CC(NC(=O)OCc1ccccc1)C(C(=O)OCc1ccccc1)C1(C)OCCO1 (stereo not given) | > 100 µM |  | > 100 µM | 62.6 µM | > 100 µM |  | > 100 µM | 61.1 µM | > 100 µM | > 100 µM |  |  |  |  |  |  |  |  |
| CC(=O)O[C@H]1C(=O)N(c2cc3c4ccccc4ccc3c3ccccc23)[C@@H]1c1ccccc1 | 89.2 µM | 35.5 µM | > 100 µM |  | 33.1 µM |  | 49.5 µM | 28 µM | 8.27 µM | 8.95 µM |  |  |  |  |  |  |  |  |
| CCCCCCOP(=O)(OCCCCCC)OC(C(=O)OC)C(F)(F)F (stereo not given) | > 100 µM | > 100 µM | > 100 µM | > 100 µM | > 100 µM | > 100 µM | > 100 µM | > 100 µM | > 100 µM |  |  |  |  |  |  |  |  |  |
| COc1ccc(-c2c3ccccc3c(-c3ccc(OCCCCCBr)cc3)c3ccccc23)cc1 | > 100 µM | > 100 µM | > 100 µM | > 100 µM | > 100 µM | > 100 µM | > 100 µM | > 100 µM | > 100 µM |  |  |  |  |  |  |  |  |  |
| O=C(CSc1nc2ccc(I)cc2c(=O)n1Cc1ccccc1)NN1C(=O)CCC1=O | 34.6 µM | 6.91 µM | > 100 µM | 87.6 µM | > 100 µM | 47.1 µM | 75.9 µM |  | 90.9 µM | 62.5 µM |  |  |  |  |  |  |  |  |
| CCOC(=O)/C(C#N)=C/N(CC)/N=C/c1ccccc1 | > 100 µM | > 100 µM | > 100 µM | > 100 µM |  | > 100 µM | > 100 µM | > 100 µM | > 100 µM | > 100 µM |  |  |  |  |  |  |  |  |
| CC(C)(C)CC(C)(C)c1ccc(OCCOCC[N+](C)(C)Cc2ccccc2)cc1 | 32.9 µM and 26.7 µM | 38.2 µM and 30.8 µM | 63.6 µM and 51.3 µM | 6.31 µM |  | 6.42 µM | 9.38 µM | 45.9 µM and 43 µM |  | 10.3 µM | 15.1 µM |  |  |  |  | 12.4 µM | 6.95 µM | 16.6 µM |
| COc1ccc(-c2nc(-c3cnccn3)n(C3OC(CO)C(O)C(O)C3O)n2)cc1 (stereo not given) |  |  | > 100 µM | > 100 µM | > 100 µM | > 100 µM | > 100 µM | > 100 µM | > 100 µM | > 100 µM |  |  |  |  |  |  |  |  |
| CNc1ccc(Cl)cc1S(=O)(=O)c1ccccc1[N+](=O)[O-] | > 100 µM |  | > 100 µM | > 100 µM | > 100 µM | > 100 µM | > 100 µM | > 100 µM | > 100 µM | > 100 µM |  |  |  |  |  |  |  |  |
| CCOC1=C2NC(Cc3ccc(F)cc3)=NC2C(=O)c2ccccc21 (stereo not given) | > 100 µM |  |  | 22.2 µM | 71.4 µM | 46.1 µM |  | 25.1 µM | > 100 µM | 73.5 µM |  |  |  |  |  |  |  |  |
| CC(=O)CC1(C)OC(N)=C(C#N)C1(C#N)C#N (stereo not given) | > 100 µM | > 100 µM | > 100 µM |  | > 100 µM | > 100 µM |  | > 100 µM | > 100 µM | > 100 µM |  |  |  |  |  |  |  |  |
